Earlier results on one molecule are cited in US20050042240A1, “High viscosity antibacterials” (priority 2002, published 2005).

Structures are written as SMILES. A value given as a limit tells only on which side of the number the result lay.

The conditions of the data set: chronic catheter lock context.

On to `CC(C)O` [isopropyl alcohol], for which the “daily dose above which toxic symptoms can arise” value is listed as > 500 mg.
